Results reported in patent US12024544B2, “CCN3 and CCN3 peptides and analogs thereof for therapeutic use” (Rosalind Franklin University of Medicine & Science, priority 2010, dated 2024).
“Also recorded” adds a separate entry of the source. Where a SMILES comes first, the peptide text is derived from it.

How the values were obtained:
Assay type in all cases: cell-based
[1] = tested on: MMP-1; assay: MMP-1 production by human skin fibroblasts; conditions: for reduction in PDGF stimulated MMP-1 production: 100 nM, FIG. 27
Excerpt: (§1) To test this we used a cell culture model of skin healing/scarring, which employed the use of primary human skin fibroblasts derived from foreskins collected post circumcision. These have been used extensively in the past to grown in culture and treated with agents that are known to drive wound healing and or scarring. We were also interested in a rare form of skin fibrosis/scarring that can lead to systemic disease and death known as nephrogenic systemic fibrosis (NSF). NSF is a complication of NMR diagnostics in renal impaired patients, where gadolinium (GAD), a heavy metal, is used as a contrast agent, but in some cases appears to deposit in skin. Although the mechanism for development of skin fibrosis and subsequent systemic disease is not yet completely understood, we have developed a model that has allowed elucidation of the probable pathway to skin fibrosis (Bhagavathula, N., M. K. Dame, M. DaSilva, W. Jenkins, M. N. Aslam, P. Perone and J. Varani (2010)). “Fibroblast response to gadolinium: role for platelet-derived growth factor receptor.” Invest Radiol 45(12): 769-777). This disease is characterized as a hyperproliferative disease, and in our model it was shown that PDGF produced by resident skin fibroblasts are stimulated by GAD to increase their production of PDGF which acts to induce proliferation and the increased production of MMPs, regulators of ECM breakdown and thus turnover, including the major MMP, MMP-1. At the same time tissue inhibitors of MMPs (TIMPs) are also affected by exposure to GAD. […] It appears that local fibroblasts then respond to this increased TGF-beta by increasing their production of ECM, including predominantly collagen type 1.
(§2) We examined the role of CCN3 and CCNp in fibroproliferative/fibrotic responses in human dermal fibroblasts exposed to Omniscan, one of the gadolinium-based contrast agents associated with development of nephrogenic systemic fibrosis. These studies were carried out as we have previously described (Riser, B. L., N. Bhagavathula, P. Perone, K. Garchow, Y. Xu, G. J. Fisher, F. Najmabadi, D. Attili and J. Varani (2012)). “Gadolinium-induced fibrosis is counter-regulated by CCN3 in human dermal fibroblasts: a model for potential treatment of nephrogenic systemic fibrosis.” J Cell Commun Signal 6(2): 97-105.). In our studies, human dermal fibroblasts were exposed to Omniscan; or to PDGF and TGF-β1 as controls. Cellular proliferation was assessed along with MMP-1 (by ELISA and gelatin zymography), TIMP-1 (by ELISA) and COL1 (by ELISA) in the absence and presence of CCN3 and CCNp. CCN3 and CCNp38 was added to cells at 10 nM concentration and at the same time as PDGF. In parallel, CCN3 production was assessed in control and Omniscan-treated cells. In most case the results shown (each bar) are the mean of 3-5 separate experiments, using fibroblasts from different donors. CCN3 was produced in our laboratory from the human embryonic kidney cell line (HEK-293) transfected with the complete human CCN3 gene, and producing an approximate 55 kDa, full-length CCN3 product. A second source of CCN3 was obtained from Pepro Tech Corporation (Rocky Hill, NJ) and is produced in a prokaryote cell line.
(§3) Next we created and tested for efficacy, additional CCNp including those with the cysteines intact (native sequence) from CCNp37 and CCNp38 and those that were modified by either shortening the peptide by 1 or 2 amino acids or lengthening by one amino acid. These agents were added to human skin fibroblasts in increasing concentrations from 1 nM to 100 nM and compared to the equal concentration of CCN3 (SEQ. ID. NO: 67). They were added just prior to the addition of either TGF-beta or PDGF, depending on the experiment.

[2] = tested on: human skin fibroblasts; assay: human skin fibroblast proliferation
Excerpt: as §1, §2, §3

[3] = tested on: TIMP-1; assay: TIMP-1 production by human skin fibroblasts
Excerpt: as §1, §2
Next we created and tested for efficacy, additional CCNp including those with the cysteines intact (native sequence) from CCNp37 and CCNp38 and those that were modified by either shortening the peptide by 1 or 2 amino acids or lengthening by one amino acid. […]

[4] = tested on: pro-collagen type 1; assay: pro-collagen type 1 production by human skin fibroblasts
Excerpt: To test this we used a cell culture model of skin healing/scarring, which employed the use of primary human skin fibroblasts derived from foreskins collected post circumcision. These have been used extensively in the past to grown in culture and treated with agents that are known to drive wound healing and or scarring. We were also interested in a rare form of skin fibrosis/scarring that can lead to systemic disease and death known as nephrogenic systemic fibrosis (NSF). NSF is a complication of NMR diagnostics in renal impaired patients, where gadolinium (GAD), a heavy metal, is used as a contrast agent, but in some cases appears to deposit in skin. Although the mechanism for development of skin fibrosis and subsequent systemic disease is not yet completely understood, we have developed a model that has allowed elucidation of the probable pathway to skin fibrosis (Bhagavathula, N., M. K. Dame, M. DaSilva, W. Jenkins, M. N. Aslam, P. Perone and J. Varani (2010)). “Fibroblast response to gadolinium: role for platelet-derived growth factor receptor.” Invest Radiol 45(12): 769-777). This disease is characterized as a hyperproliferative disease, and in our model it was shown that PDGF produced by resident skin fibroblasts are stimulated by GAD to increase their production of PDGF which acts to induce proliferation and the increased production of MMPs, regulators of ECM breakdown and thus turnover, including the major MMP, MMP-1. At the same time tissue inhibitors of MMPs (TIMPs) are also affected by exposure to GAD. […]
We examined the role of CCN3 and CCNp in fibroproliferative/fibrotic responses in human dermal fibroblasts exposed to Omniscan, one of the gadolinium-based contrast agents associated with development of nephrogenic systemic fibrosis. […] Cellular proliferation was assessed along with MMP-1 (by ELISA and gelatin zymography), TIMP-1 (by ELISA) and COL1 (by ELISA) in the absence and presence of CCN3 and CCNp. […] In parallel, CCN3 production was assessed in control and Omniscan-treated cells. […]

[5] = tested on: collagen type I promoter; assay: collagen type I promoter (COL 1a2 promoter-luciferase) assay in TGF-beta stimulated mesangial cells
Description: In a second assay, the ability of the peptide to block the stimulation of collagen type I promoter by TGF-beta was tested. Collagen type I upregulation is a characteristic feature of fibrosis and is often used as an end point determination. TGF-beta is a well-established pro-fibrotic factor or cytokine that mesangial cells and other cells in the fibrotic response respond to by upregulating collagen and other matrix molecule production and accumulation. Several new anti-fibrotic therapies are under development that target the activity of TGF-beta. For the assays used in connection with the present invention, collagen promoter activity was measured as a rapid and early indicator of collagen-related fibrotic activity. The cells in culture were either unstimulated or stimulated by TGF-beta, both in the presence and absence of the selected peptides. If the peptides have inhibitory activity, the promoter activity under TGF-beta stimulation would be reduced to some value approaching the control, non-TGF-beta treated cells. The collagen promoter assay is based on the transfection of mesangial cells with a COL 1a2 promoter linked to luciferase. Therefore, when the promoter is stimulated it can be measured as luciferase units (Riser et al, CCN3 is a negative regulator of CCN2 and a novel endogenous inhibitor of the fibrotic pathway in an in vitro model of renal disease, American J Pathology, 174, 5, 2009). The level of collagen promoter activation (in arbitrary units), is based on a transfection efficiency control (CMV promoter activation).

[6] = tested on: human chronic myelogenous leukemia cells (K562); conditions: 10 nM
Description: Another potential use of the methods described in the invention is for the treatment of cancers. […] CCNp generated to mimic the effects of the function of CCN3 to prevent, reduce, stop or reverse progression of fibrosis/scarring may also serve to limit cancer growth. […] In untreated cells (Control) and those pre-incubated with quantities (approximately 10 nM) of a commercial recombinant CCN3 (rCCN3c), or full length CCN3 made in our laboratory, represented by several preparations rCCN3 8 (SEQ ID NO: 44), rCCN3 9 (SEQ ID NO: 44), rCCN3 10 (SEQ ID NO: 44), rCCN3 11 (SEQ ID NO: 44), or the peptides CCN p37 or CCN p38 were allowed to grow, then proliferation measured by the CellTiter-Glo® Luminescent Cell Viability Assay Control untreated cells, or cells (McCallum, L et al, CCN3: a key growth regulator in Chronic Myeloid Leukaemia, J Cell Commun Signal. 2009 June; 3(2): 115-124.). The latter is a homogeneous method of determining the number of viable cells in culture based on quantitation of the ATP present, an indicator of metabolically active cells. […] In comparison, CCNp37 produces 15-20% inhibition and CCNp38 approximately 40% inhibition of cell growth. Thus the activity was greater than the full-length CCN3.

“CCNp37-15: Human or mouse analog with native cysteines replaced with serines and without PH on C-terminal end, SEQ. ID. No. 55 (FSGVSSDGRSST)” was tested, and the “block of PDGF stimulated MMP-1 production, comparison of modifications” value ([1]; 1 nM to 100 nM, FIGS. 25-27) was “less effective”.

“CCNp38-3: Human analog CCNp38 with native cysteines replaced with serines, SEQ. ID. No. 56 (SDRSADPSNQTGIS)” was tested, and the “block of PDGF-stimulated fibroblast proliferation” value ([2]; PDGF, 10 nM, FIG. 15) was “equally well; also recorded: this stimulation is blocked”, the “effect on baseline cell growth” value ([2]; TGF-beta (does not stimulate proliferation), FIG. 16) was “neither CCN3 (SEQ. ID. No. 67) nor CCNp38-3 (Seq. ID. No. 56) has an effect on baseline cell growth” and the “reduction in PDGF stimulated MMP-1 production” value [1] was “about 60%”. The “block of PDGF-induced increase in MMP-1 activity” value ([1]; PDGF, 10 nM, FIG. 17) was “works better than CCN3 protein; also recorded: works as well or better than CCN3 protein”, the “effect on MMP-1 with TGF-beta” value ([1]; TGF-beta (no stimulating effect), FIG. 18) was “no effect” and the “block of PDGF-induced increase in TIMP-1 production” value ([3]; PDGF, 10 nM, FIG. 19) was “neither CCNp38-3 (Seq. ID. No. 56) nor CCN3 (SEQ. ID. No. 67) is able to block or reduce the increase in TIMP-1 production”. For the same compound, the “effect on TIMP-1 production with TGF-beta” value ([3]; TGF-beta (fails to stimulate), FIG. 20) was “neither CCNp38-3 nor CCN3 have an effect; also recorded: neither CCNp38-3 or CCN3 have an effect”, the “reduction of TGF-beta-stimulated pro-collagen type 1 production” value ([4]; 1-100 nM, FIGS. 31-33) was “as effective as CCN3” and the “block of TGF-beta-induced increase in pro-collagen production” value ([4]; TGF-beta, 10 nM, FIG. 21) was “completely block the increase”.

In the case of “CCNp38-4: Human native CCNp38, SEQ. ID. No. 50 (CDRSADPSNQTGIC; listed as Homo sapiens)”, the “inhibition of PDGF-stimulated proliferation, comparison of modifications” value ([2]; 1 nM to 100 nM, FIGS. 22-24) is reported as “inhibited proliferation stimulated by PDGF, but was not as effective as the substituted form” and the “reduction in PDGF stimulated MMP-1 production” value [1] is reported as “about 60%”.

For `CC(C)[C@H](NC(=O)CNC(=O)[C@H](CO)NC(=O)[C@@H](N)Cc1ccccc1)C(=O)N[C@@H](CO)C(=O)N[C@@H](CO)C(=O)N[C@@H](CC(=O)O)C(=O)NCC(=O)N[C@@H](CCCNC(=N)N)C(=O)N[C@@H](CO)C(=O)N[C@@H](CO)C(=O)N[C@H](C(=O)N1CCC[C@H]1C(=O)N[C@@H](Cc1c[nH]cn1)C(=O)O)[C@@H](C)O` [CCNp37] (H-FSGVSSDGRSSTPH-OH), the “inhibition of TGF-β-stimulated collagen promoter activity” value ([5]; added 24-hours prior to TGF-β) was “able to produce some activity”, the “inhibition of TGF-β-stimulated collagen promoter activity” value ([5]; added 24-hours prior to TGF-β, listed as Peptide 37) was “also present (although to a lower level)” and the “inhibition of TGF-β-stimulated collagen promoter activity” value ([5]; added just prior to TGF-β) was “most effective”. For the same compound, the “inhibition of TGF-β-stimulated collagen promoter activity” value ([5]; added just prior to TGF-β, listed as Peptide 37) was “ability to totally block TGF-β-stimulated collagen promoter activity”, the “inhibition of TGF-β-stimulated collagen promoter activity” value ([5]; peptide screen, FIG. 8) was “reduce collagen promoter stimulation by TGF-β; also recorded: inhibition of TGF-beta stimulated collagen promoter activity; also recorded: more potent than CCNp38” and the “reduction in growth and/or viability (inhibition of cell growth)” value [6] was 15-20%.

In the case of `CC[C@H](C)[C@H](NC(=O)CNC(=O)[C@@H](NC(=O)[C@H](CCC(N)=O)NC(=O)[C@H](CC(N)=O)NC(=O)[C@H](CC(N)=O)NC(=O)[C@@H]1CCCN1C(=O)[C@H](CC(=O)O)NC(=O)[C@H](C)NC(=O)[C@H](CO)NC(=O)[C@H](CCCNC(=N)N)NC(=O)[C@H](CC(=O)O)NC(=O)[C@@H](N)CO)[C@@H](C)O)C(=O)N[C@@H](CO)C(=O)O` [CCNp38] (H-SDRSADPNNQTGIS-OH), the “inhibition of TGF-β-stimulated collagen promoter activity” value ([5]; 500 ng/mL) is reported as “able to inhibit collagen promoter activity”, the “inhibition of TGF-β-stimulated collagen promoter activity” value ([5]; peptide screen, FIG. 8) is reported as “reduce collagen promoter stimulation by TGF-β” and the “reduction in growth and/or viability (inhibition of cell growth)” value [6] is reported as “approximately 40%”.
